Data on 5 compounds can be found in PMC12916490 (Molecular Psychiatry, 2025).

Molecules are shown by their SMILES. Where two headings read alike, the source gives them in different places.

One test deals with T1, h5-HT2C (Homo sapiens, UniProt P28335).
T1 sequence (P28335 33-458): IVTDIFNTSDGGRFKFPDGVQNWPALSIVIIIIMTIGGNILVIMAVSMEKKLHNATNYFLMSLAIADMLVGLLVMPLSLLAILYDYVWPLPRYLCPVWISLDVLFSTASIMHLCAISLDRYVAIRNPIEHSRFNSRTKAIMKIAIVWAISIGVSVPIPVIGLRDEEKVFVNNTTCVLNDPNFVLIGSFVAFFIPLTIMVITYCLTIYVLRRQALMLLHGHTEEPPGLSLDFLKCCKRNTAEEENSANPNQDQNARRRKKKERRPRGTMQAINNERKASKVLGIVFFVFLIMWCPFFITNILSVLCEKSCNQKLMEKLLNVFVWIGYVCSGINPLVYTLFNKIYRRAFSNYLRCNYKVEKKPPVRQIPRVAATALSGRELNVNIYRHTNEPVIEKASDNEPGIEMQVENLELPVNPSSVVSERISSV
Put plainly: cell-based. The conditions noted are these: for Emax: read-out: IP1 formation Emax h5-HT2C (95% CI).

The target of a further test is T2, hTAAR1 (Homo sapiens, UniProt Q96RJ0).
T2 construct: expressed in transfected cells
T2 sequence (Q96RJ0 1-339): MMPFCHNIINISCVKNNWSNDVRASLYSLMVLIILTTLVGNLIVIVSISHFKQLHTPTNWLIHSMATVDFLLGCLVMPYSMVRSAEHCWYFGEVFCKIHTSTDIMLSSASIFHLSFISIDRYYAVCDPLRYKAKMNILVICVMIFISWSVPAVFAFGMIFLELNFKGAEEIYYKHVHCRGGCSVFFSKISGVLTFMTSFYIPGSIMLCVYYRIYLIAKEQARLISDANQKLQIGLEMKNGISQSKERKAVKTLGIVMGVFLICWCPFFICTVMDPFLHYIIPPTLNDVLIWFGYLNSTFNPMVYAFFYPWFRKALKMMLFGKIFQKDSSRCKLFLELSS
Put plainly: Functional activity at human TAAR1 (cAMP). The class given is cell-based. Conditions: for Emax: mean (95% CI), β-phenylethylamine as maximal response, read-out: hTAAR1 Activation efficacy Emax. Here is the method:
Activity at the human trace amine-associated receptor 1 (hTAAR1) was determined as previously described. More information can be found in the Supplementary information.
Then, the obtained RA values were used to calculate the bias factor (β) for each pathway combination. […]
pathway 1 over pathway 2. Brown-Forsythe and Welch ANOVA analyses were applied to estimate the statistical probability that β is different from zero.
3.3 Functional activity at the human TAAR1 […]
receptor 1 (hTAAR1) were generated by transfection with Lipofectamine 2000 (Invitrogen, Zug, Switzerland). The cells were harvested and pelleted by centrifugation at 900 rpm for 3 min at room temperature. The supernatant was then removed, and the cell pellet was resuspended in fresh culture medium. The cells were plated into 96 -well plates (100 μL, containing 80,000 cells per well) and incubated […]
The culture medium was removed, and the cells were washed once with 50 μL phosphate buffered saline without Ca2+ and Mg2+. Thereafter, 90 μL of Krebs -Ringer bicarbonate buffer (Sigma- […]
to 10 μM cAMP) was included on each plate. In addition, a reference plate containing RO5256390, β-phenylethylamine, and p-tyramine was included in each experiment. Test compound solution, β-phenylethylamine (as maximal response), or basal control were added at a volume of 30 μL, and the cells […]
Afterwards, the cells were lysed with 50 μL of detection mix solution […]
under heavy shaking. Fluorescence was then measured.
3.4 Plasma and brain tissue analysis
3.4.1 Analytical standards […]
to spike blank plasma or tissue homogenate at calibration standards of 1, 2.5, 5, 10, 25, 50, 100, 250, and […]
Extraction was performed by protein precipitation with 150 µL of acetonitrile added to 50 µL plasma in a 2-mL centrifuge tube. The samples were then vortexed for 10 s and shaken for 3 min at […]

The subject of another test is C57BL/6 J mice. Put plainly: HTR after single fixed doses prior to brain and blood collection (20 min). The class given is in vivo, mouse. The conditions noted are these: single s.c. dose: DOM 3, DOPR 1, DOBU 3, DOAM 10, 2,5-DMA 10 mg/kg. The protocol: In these experiments, HTR activity was monitored for 20 min, followed by cardiac puncture and decapitation. Whole blood (~ 300–500 µL per sample) was collected via cardiac puncture, placed in tubes containing 10 µL of heparin (1000 IU/mL), and immediately stored on ice until centrifugation. Blood samples were spun at 3300 rpm at 4 °C and plasma was decanted into vials on dry ice until storage at -80 °C. Whole brains were collected immediately after cardiac puncture. Brains were frozen on dry ice, weighed, then placed into 7-mL homogenizing tubes with ceramic beads, and stored at -80 °C.
Data analysis was performed with Prism software (version 10.1.2, GraphPad Software, Boston, MA, USA). The IC50 values from the radioligand binding assays were determined by nonlinear regression, using three independent concentration-response curves fitted to a one-site model. The Cheng-Prusoff equation was used to calculate Kᵢ values for the competing ligands. EC50 values were determined by applying nonlinear regression to concentration-response curves. Bias factors (β) were calculated based on the relative intrinsic activity approach. More detailed information can be found in the Supplementary information. Mean values for total number of HTR, change in body temperature from pre to post session (Δ°C), and total distance traveled (cm) for each drug dose were compared (p < 0.05) via Welch’s ANOVA with Dunnett’s T3 post test, comparing all doses to respective vehicle controls (0 mg/kg). Welch’s ANOVA with Dunnett’s T3 post test was also used to compare drug concentrations, but the data were compared to DOM in this case. Dose–response relationships for HTR and locomotor activities were plotted using bell-shaped curve fits, while temperature change data were plotted using four-parameter non-linear regression curve fits. The ascending phase of the HTR curve for each drug was used to determine ED50 potency values from four parameter non-linear regression fits. […]

As for `CCCCc1cc(OC)c(CC(C)N)cc1OC` (stereo not shown) [DOBU, 4-butyl-2,5-dimethoxyamphetamine], the EC50 (usually the concentration needed to bring the measured effect to its halfway point) at h5-HT2C was 0.00013 µM; at hTAAR1, 10.4 µM. The results for the Emax at h5-HT2C (normalized to maximal effect of 5-HT) and on hTAAR1 were 95% and 98%, respectively. Also, in the test on C57BL/6 J mice, the HTR is 37 count/20 min.

On to `COc1ccc(OC)c(CC(C)N)c1.Cl` (stereo not shown) [2,5-DMA, 2,5-Dimethoxyamphetamine hydrochloride], for which, at h5-HT2C, the EC50 was 0.124 µM and the Emax (commonly the size of the effect at its maximum, as opposed to the concentration needed) was found to be 103%. Also, the EC50 on hTAAR1 was over 30 µM. The HTR in the test on C57BL/6 J mice came out at 19 count/20 min.

Take `CCCCCc1cc(OC)c(CC(C)N)cc1OC` (stereo not shown) [DOAM, 4-amyl-2,5-dimethoxyamphetamine]: the EC50 is 0.0009 µM at h5-HT2C and 21.8 µM on hTAAR1. Further, the Emax at h5-HT2C came out at 94%; on hTAAR1, 86%. Moreover, the HTR in the test with C57BL/6 J mice turned out to be 30 count/20 min.

On to `CCCc1cc(OC)c(CC(C)N)cc1OC.Cl` (stereo not shown) [DOPR, 4-propyl-2,5-dimethoxyamphetamine hydrochloride], for which, on h5-HT2C, it took 0.00093 µM to reach a half-maximal effect (EC50) and the Emax came out at 99%. Moreover, at hTAAR1, the EC50 amounted to 10.1 µM and the Emax stood at 95%.

In the case of `COc1cc(CC(C)N)c(OC)cc1C` (stereo not shown) [DOM, 4-methyl-2,5-dimethoxyamphetamine], at hTAAR1, the EC50 is over 30 µM.
